Source: the NIST ThermoML archive (doi:10.1016/j.jct.2015.09.002)

Assay: xn = mol fraction of the nth substance listed
Conditions: 93.2 kPa, Liquid, Vibrating tube method

CC(C)(C)N [2-methyl-2-propanamine] + CC#N
mass density [kg/m3]
Conditions | 293.15 K | 298.15 K | 303.15 K | 308.15 K
x2 = 0 | 692.06 | 686.65 | 681.18 | 675.66
x2 = 0.009 | 692.79 | 687.38 | 681.92 | 676.4
x2 = 0.0205 | 693.46 | 688.06 | 682.61 | 677.1
x2 = 0.0313 | 694.05 | 688.66 | 683.22 | 677.72
x2 = 0.0421 | 694.67 | 689.29 | 683.85 | 678.36
x2 = 0.0536 | 695.33 | 689.95 | 684.53 | 679.04
x2 = 0.0625 | 695.85 | 690.48 | 685.06 | 679.59
x2 = 0.0694 | 696.27 | 690.86 | 685.44 | 679.97
x2 = 0.0801 | 696.87 | 691.5 | 686.09 | 680.61
x2 = 0.0874 | 697.28 | 691.92 | 686.51 | 681.05
x2 = 0.1006 | 698.07 | 692.74 | 687.34 | 681.89
x2 = 0.1489 | 701.01 | 695.71 | 690.34 | 684.92
x2 = 0.2023 | 704.54 | 699.21 | 693.83 | 688.43
x2 = 0.2493 | 707.7 | 702.41 | 697.06 | 691.72
x2 = 0.3021 | 711.23 | 705.97 | 700.63 | 695.28
x2 = 0.3487 | 714.58 | 709.33 | 704 | 698.63
x2 = 0.3998 | 718.28 | 713.06 | 707.73 | 702.38
x2 = 0.4489 | 721.98 | 716.77 | 711.44 | 706.12
x2 = 0.501 | 726.15 | 720.91 | 715.64 | 710.33
x2 = 0.5485 | 730.26 | 725.04 | 719.77 | 714.47
x2 = 0.6009 | 735.01 | 729.79 | 724.53 | 719.22
x2 = 0.6494 | 739.58 | 734.35 | 729.08 | 723.75
x2 = 0.6932 | 743.94 | 738.74 | 733.46 | 728.14
x2 = 0.7494 | 749.81 | 744.57 | 739.28 | 733.95
x2 = 0.8001 | 755.58 | 750.29 | 744.99 | 739.64
x2 = 0.8497 | 761.5 | 756.2 | 750.87 | 745.51
x2 = 0.8984 | 767.7 | 762.38 | 757.02 | 751.64
x2 = 0.9093 | 769.13 | 763.81 | 758.46 | 753.06
x2 = 0.9202 | 770.57 | 765.25 | 759.88 | 754.48
x2 = 0.9292 | 771.83 | 766.5 | 761.11 | 755.72
x2 = 0.9401 | 773.34 | 768 | 762.61 | 757.2
x2 = 0.9501 | 774.73 | 769.38 | 763.99 | 758.56
x2 = 0.9599 | 776.15 | 770.78 | 765.38 | 759.96
x2 = 0.9699 | 777.57 | 772.2 | 766.79 | 761.36
x2 = 0.9795 | 778.96 | 773.59 | 768.17 | 762.72
x2 = 0.9892 | 780.39 | 775.01 | 769.59 | 764.14
